The text below walks through data of PubChem BioAssay (NCI).

Values joined by “and” are separate entries in the source; they are usually repeats but may differ in a detail not shown here. Equal values may be shown once.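 Following 48 hours of exposure in 96-well plates, responses at five concentrations were used to interpolate endpoints linearly. GI50 marks 50% less growth. At the TGI there is no net growth.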 Where only a bound is given, the exact number is not on record here.

Common to all, as to assay: NCI tumour cell line growth inhibition, 48 h
Assay [1] deals with A549 NSCLC.
Assay [2] concerns HCT-116 colon.
In assay [3] the test system is HS 578T breast.
Assay [4] relates to HT29 colon.
For assay [5], the system named is K-562 leukemia.
In assay [6] the test system is MALME-3M melanoma.
In assay [7] the test system is OVCAR-3 ovarian.
The test system of assay [8] is SK-MEL-28 melanoma.
In assay [9] the test system is SK-OV-3 ovarian.
For assay [10], the system named is U251 CNS.

Turning to `Cn1ncc(-c2ccc3c(=O)[nH]nc(CN)c3c2)c1-c1c(F)c(Cl)cc(OC2CC2)c1C#N`, the GI50 in [1] was 15.8 µM and 15.4 µM; in assay [2], 13.1 µM and 12.8 µM; in assay [3] it was 12.4 µM and 11 µM; in assay [4], 11.6 µM and 10.3 µM; in assay [5], 14.5 µM and 14.8 µM; in [6], 14.2 µM and 12.2 µM. For the same molecule, the GI50 is 15 µM and 12.6 µM in assay [7]; 14.3 µM and 13.7 µM in [8]; 20.4 µM and 17.4 µM in [9]; 14.9 µM and 13.7 µM in assay [10]. Also, the TGI was 33.9 µM and 32.2 µM in [1]; 29.1 µM and 27.5 µM in assay [2]; 33.8 µM and 29.9 µM in [3]; 29.6 µM and 22.7 µM in assay [4]; 92.1 µM and > 100 µM in [5]; 28.8 µM and 25.5 µM in assay [6]. Moreover, the TGI in assay [7] is 30.6 µM and 26.5 µM; in assay [8] it was 27.8 µM and 27.2 µM; in assay [9] it was 40.5 µM and 33.3 µM; in [10], 29.5 µM and 27.5 µM.

As to `O=S(=O)(Nc1ccc(Br)cc1)c1ccc(-c2cnc(C3CC3)o2)cc1`, the GI50 in [1] was 3.85 µM; in [2], 2.2 µM; in assay [3] it was 1.38 µM; in assay [4], 0.715 µM; in [5], 0.41 µM; in assay [6], 1.66 µM. Moreover, the GI50 in assay [7] was 1.05 µM; in assay [8], 10 µM; in assay [9], 2.49 µM; in [10], 3.31 µM. The TGI in assay [1] was 22.5 µM; in assay [2], 16 µM; in assay [3], 6.17 µM; in assay [4], 15.9 µM; in [5], more than 100 µM; in assay [6], 17.8 µM. Besides, the TGI in assay [7] is 3.96 µM; in [8], 22.9 µM; in assay [9], 14.3 µM; in [10] it was 18.2 µM.

As for `CC(=O)Nc1ccc(-c2cc(C(=O)O)c3cc4ccccc4cc3n2)cc1`, the TGI in [1], in assay [2], in [3], in [4], in [5] and in [6] was more than 100 µM throughout. Besides, the TGI in assay [7], in [8], in [9] and in [10] was more than 100 µM in each case.

Turning to `CCc1c2c(nc3ccc(OCc4ccc(B(O)O)cc4)cc13)-c1cc3c(c(=O)n1C2)COC(=O)[C@]3(O)CC`, the GI50 is 0.0681 µM in assay [1]; 0.0118 µM in [2]; 0.752 µM in assay [3]; 0.286 µM in [4]; 0.0792 µM in assay [5]; 0.0576 µM in assay [6]. Further, the GI50 in assay [7] was 0.172 µM; in assay [8], 0.477 µM; in [9] it was less than 0.01 µM; in assay [10], less than 0.01 µM. In addition, the TGI in [1] is more than 32.3 µM; in assay [2], 17.8 µM; in [3], more than 100 µM; in [4], more than 37.7 µM; in assay [5], more than 100 µM; in assay [6] it was 1.59 µM. For the same molecule, the TGI was 4.46 µM in assay [7], more than 100 µM in assay [8] and 0.347 µM in [9].

Regarding `c1ccc(-c2nc(-c3ccccn3)nc(-c3ccccn3)n2)nc1`, the GI50 is 47.9 µM in assay [1]; 19.4 µM in assay [2]; 53.6 µM in assay [3]; 6.73 µM in assay [4]; 19.4 µM in [5]; 35.3 µM in assay [6]. The GI50 in assay [7] was 25.4 µM; in assay [8], 71 µM; in [9] it was 54.2 µM; in assay [10], 48.6 µM. For the same molecule, the TGI in [1] was more than 100 µM; in [2], 78.6 µM; in assay [3], more than 100 µM; in assay [4] it was more than 100 µM; in assay [5] it was more than 100 µM; in [6] it was more than 100 µM. Besides, the TGI in [7], in assay [8], in assay [9] and in [10] was more than 100 µM each time.

Consider `COc1cc(C)ccc1C(=O)c1ccc(C)cc1OC`, for which the GI50 in assay [1] is 3.35 µM; in assay [2] it was 3.25 µM; in [3], 3.45 µM; in assay [4], 1.85 µM; in [5] it was 0.619 µM; in assay [6], 4.67 µM. For the same molecule, the GI50 was 2.1 µM in assay [7], 6.96 µM in assay [8], 2.66 µM in [9] and 3.06 µM in assay [10]. The TGI is more than 100 µM in [1]; more than 100 µM in assay [2]; more than 100 µM in assay [3]; 7.99 µM in [4]; more than 100 µM in [5]; more than 100 µM in assay [6]. The TGI in [7] is 6.55 µM; in assay [8] it was more than 100 µM; in assay [9] it was 14.1 µM; in assay [10], more than 100 µM.
